{
  "source": "patent US20260234180A1",
  "about": "“AMINO ACID DERIVATIVE, PREPARATION METHOD THEREFOR, AND PHARMACEUTICAL COMPOSITION FOR TREATING HEPATITIS, COMPRISING SAME” (priority 2021, published 2026)",
  "key": {"HBV virus [1]": {"test_system": "HBV virus", "test": "HBV infection of HepG2-NTCP cells, HBeAg ELISA analysis", "format": "cell-based, hepatitis B virus (HBV)", "settings": "20 μM, O.D. 450 nm", "experimental": "(§1) Specifically, the HepG2-NTCP cell line was cultured on a 6-well plate, incubation was performed overnight, HBV inhibitors were treated at a concentration of 20 μM, and the positive control Myrcludex-B (MyrB) was treated at a concentration of 200 nM, followed by culture for 24 hours. After HBV infection into the cells to make HBV 3000 genome equivalent per ml/cell (Geq/cell), the cell culture medium was replaced (medium changing, MC) a day after the viral infection to remove the virus unattached to cell membranes. In order to measure an amount of virus that entered the cell, medium changing (MC) was performed once more 4 days after viral infection. 2 days after replacement, HBeAg ELISA analysis was performed using a supernatant, and Southern blot analysis was performed with cell pellets.\nHBeAg ELISA analysis was performed using an HBeAg ELISA kit (sanbio, Wantai HBeAg ELISA, cat #WB-2496) for the supernatant obtained by the method in Experimental Example 4-1.\nFirst, a negative control group (Mock), positive control group (MyrB), and samples according to the present disclosure were loaded, by 50 μl each to be triplicate, onto a 96-well plate coated with capture Ab. In this case, Example 1 (LCA-ILE), Example 44 (LCA-Val), Example 52 (LCA-Tyr), Example 51 (LCA-Ser), Example 55 (LCA-Glu), Example 2 (UDCA-Ile), Example 3 (UDCA-Val), Example 25 (LCA-Val-Trp), Example 10 (DCA-Ile), Comparative Example 1 (LCA), and Comparative Example 2 (UDCA) were used as the sample.\nThe HRP-conjugated detection antibody was loaded into each well by 50 μl, followed by a reaction at 37° C. for 30 minutes. Washing buffer (1×PBS, 0.5% Tween20) was added by 200 μl, and washing was performed 5 times. 50 μl of chromogen solution A and 50 μl of chromogen solution B were added to each well, and a reaction was carried out in the darkness at 37° C. for 15 minutes. The stop solution was added to each well by 50 μl each to stop the reaction, and the amount of HBeAg was measured by measuring the absorbance (optical density, O.D.) level in the 450 nm wavelength band."}, "Jurkat cell line": {"test_system": "Jurkat cell line", "test": "Cytotoxicity, WST-1 cell viability", "format": "cell-based, human", "settings": "0.2 μM~50 μM, 24 and 48 hours", "experimental": "For Example 1 (LCA-Ile), Example 44 (LCA-Val), Example 2 (UDCA-Ile), and Example 3 (UDCA-Val), cytotoxicity was evaluated in the Jurkat cell line, a human T lymphocyte-derived cell line. Jurkat cell lines were seeded at a density of 5×10^4 on a 96 well plate for overnight incubation, and each compound was treated at a concentration of 0.2 μM~50 μM for 24 or 48 hours. WST-1, a reagent for measuring cell viability, was loaded at 10 μl/well, and absorbance was measured at 440 nm using a microplate reader 2 hours later. The mean value of negative control (NC) group treated with only DMSO was calculated as 1 and the cytotoxicity for the remaining experimental group was evaluated."}, "HBV virus [2]": {"test_system": "HBV virus", "test": "HBV infection of HepG2-NTCP cells, Southern blot analysis", "format": "cell-based, hepatitis B virus (HBV)", "settings": "20 μM", "experimental": "as §1\nFirst, the cell pellets were pipetted with 100 μl of HEPES lysis buffer (10 mM HEPES, 100 mM NaCl, 1 mM EDTA, 1% NP-40), placed on ice for 20 minutes, and then centrifuged with a centrifuge under the conditions at 4° C. and 13000 rpm. After transferring the supernatant only to the new microtube, 4.5 μl of nuclease buffer I (10 mM CaCl2), 12 mM MgCl2, DNase 10 units) was added to carry out a reaction at 37° C. for 2 hours, and 40 μl of 26% PEG solution was added, followed by a reaction on ice for 1 hour. After centrifuging with the centrifuge at 4° C. and 13000 rpm for 30 minutes, and the supernatant was removed cleanly. After releasing the pellets with 100 μl of nuclease buffer II (10 mM Tris, 8 mM CaCl2), 6 mM MgCl2), 287.5 μl of 0.5% SDS buffer (25 mM Tris, 10 mM EDTA, 0.5% SDS, 100 mM NaCl) was added, and 12.5 μl of 20 mg/ml proteinase K was added, followed by a reaction at 37° C. for 2 hours. 400 μl of phenol-chloroform-isoamyl alcohol was added, centrifugation was performed at room temperature at 13000 rpm after voltexing, the supernatant was transferred to a new tube, 40 μl of 3 M NaOAc was added, and 800 μl of 100% ethanol was added for inverting, followed by a reaction overnight at −20° C. After performing centrifugation at 4° C. and 13000 rpm for 30 minutes, 800 μl of 70% ethanol was added and mixed to the pellet obtained by removing the supernatant, centrifugation was performed at 4° C. and 13000 rpm for 10 minutes, and then the supernatant was discarded. The ethanol was dried for 5 minutes to leave only the HBV DNA pellets, and then the pellets were dissolved again in 15 μl of TE buffer (10 mM Tris, 1 mM EDTA). HBV DNA samples were loaded in 1% agarose gel, and electrophoresis was performed. It was then immersed in denature buffer (0.25 N NaOH, 1 M NaCl) for 30 minutes to denature dsDNA of HBV into ssDNA. The DNA in the gel was transferred to a Nylon membrane using a transfer buffer (0.4 M NaOH), the membrane was soaked with a 2×SSC buffer (sigma, cat #85639) for neutralization, followed by drying in air. The membrane was immersed in a church buffer (10% BSA, 0.5 M EDTA, 1 M NaPi, 20% SDS), and the radioisotopes were hybridized using a Mega prime kit (GE healthcare, RPN1607). After washing three times with washing buffer (2×SSC, 0.1% SDS), measurement was performed using radioisotope measurement equipment, and a relative replication rate (%) to the negative control group (Mock) was calculated and shown."}},
  "data": [
    {"smiles": "CC[C@@H](C)[C@H](NC(=O)CC[C@@H](C)[C@H]1CC[C@H]2[C@@H]3CC[C@@H]4C[C@H](O)CC[C@]4(C)[C@H]3CC[C@]12C)C(=O)O", "note": "[Example 1, (2S,3R)-2-((R)-4-((3R,5R,8R,9S,10S,13R,14S,17R)-3-hydroxy-10,13-dimethyl-hexadecahydro-1H-cyclopenta[a]phenanthren-17-yl)pentanamido)-3-methylpentanoic acid]", "values": [
      {"measurement": "HBeAg absorbance level relative to Comparative Example 1 (LCA) and Comparative Example 2 (UDCA)", "setting": "HBV virus [1]", "result": "lower"},
      {"measurement": "HBeAg absorbance level relative to the negative control group (Mock)", "setting": "HBV virus [1]", "result": "relatively lower"},
      {"measurement": "cytotoxicity", "setting": "Jurkat cell line", "result": "barely observed"},
      {"measurement": "amount of HBeAg DNA detected compared to the negative control group (Mock)", "setting": "HBV virus [2]", "result": "relatively less amount"}
    ]},
    {"smiles": "CC[C@@H](C)[C@H](NC(=O)CC[C@@H](C)[C@H]1CC[C@H]2[C@@H]3[C@@H](O)C[C@@H]4C[C@H](O)CC[C@]4(C)[C@H]3CC[C@]12C)C(=O)O", "note": "[Example 2, (2S,3R)-2-((R)-4-((3R,5S,7S,8R,9S,10S,13R,14S,17R)-3,7-dihydroxy-10,13-dimethyl-hexadecahydro-1H-cyclopenta[a]phenanthren-17-yl)pentanamido)-3-methylpentanoic acid]", "values": [
      {"measurement": "HBeAg absorbance level relative to Comparative Example 1 (LCA) and Comparative Example 2 (UDCA)", "setting": "HBV virus [1]", "result": "lower"},
      {"measurement": "HBeAg absorbance level relative to the negative control group (Mock)", "setting": "HBV virus [1]", "result": "relatively lower"},
      {"measurement": "cytotoxicity", "setting": "Jurkat cell line", "result": "barely observed"},
      {"measurement": "amount of HBeAg DNA detected compared to the negative control group (Mock)", "setting": "HBV virus [2]", "result": "relatively less amount"}
    ]},
    {"smiles": "CC(C)[C@H](NC(=O)CC[C@@H](C)[C@H]1CC[C@H]2[C@@H]3[C@@H](O)C[C@@H]4C[C@H](O)CC[C@]4(C)[C@H]3CC[C@]12C)C(=O)O", "note": "[Example 3, (S)-2-((R)-4-((3R,5S,7S,8R,9S,10S,13R,14S,17R)-3,7-dihydroxy-10,13-dimethyl-hexadecahydro-1H-cyclopenta[a]phenanthren-17-yl)pentanamido)-3-methylbutanoic acid]", "values": [
      {"measurement": "HBeAg absorbance level relative to Comparative Example 1 (LCA) and Comparative Example 2 (UDCA)", "setting": "HBV virus [1]", "result": "lower"},
      {"measurement": "HBeAg absorbance level relative to the negative control group (Mock)", "setting": "HBV virus [1]", "result": "relatively lower"},
      {"measurement": "cytotoxicity", "setting": "Jurkat cell line", "result": "barely observed"},
      {"measurement": "amount of HBeAg DNA detected compared to the negative control group (Mock)", "setting": "HBV virus [2]", "result": "relatively less amount"}
    ]},
    {"smiles": "CC[C@@H](C)[C@H](NC(=O)CC[C@@H](C)[C@H]1CC[C@H]2[C@@H]3CC[C@@H]4C[C@H](O)CC[C@]4(C)[C@H]3C[C@H](O)[C@]12C)C(=O)O", "note": "[Example 10, (2S,3R)-2-((R)-4-((3R,5R,8R,9S,10S,12S,13R,14S,17R)-3,12-dihydroxy-10,13-dimethyl-hexadecahydro-1H-cyclopenta[a]phenanthren-17-yl)pentanamido)-3-methylpentanoic acid]", "values": [
      {"measurement": "HBeAg absorbance level relative to Comparative Example 1 (LCA) and Comparative Example 2 (UDCA)", "setting": "HBV virus [1]", "result": "lower"},
      {"measurement": "HBeAg absorbance level relative to the negative control group (Mock)", "setting": "HBV virus [1]", "result": "relatively lower"},
      {"measurement": "amount of HBeAg DNA detected compared to the negative control group (Mock)", "setting": "HBV virus [2]", "result": "relatively less amount"}
    ]},
    {"smiles": "CC(C)[C@H](NC(=O)CC[C@@H](C)[C@H]1CC[C@H]2[C@@H]3CC[C@@H]4C[C@H](O)CC[C@]4(C)[C@H]3CC[C@]12C)C(=O)O", "note": "[Example 44, (S)-2-((R)-4-((3R,5R,8R,9S,10S,13R,14S,17R)-3-hydroxy-10,13-dimethyl-hexadecahydro-1H-cyclopenta[a]phenanthren-17-yl)pentanamido)-3-methylbutanoic acid]", "values": [
      {"measurement": "HBeAg absorbance level relative to Comparative Example 1 (LCA) and Comparative Example 2 (UDCA)", "setting": "HBV virus [1]", "result": "lower"},
      {"measurement": "HBeAg absorbance level relative to the negative control group (Mock)", "setting": "HBV virus [1]", "result": "relatively lower"},
      {"measurement": "cytotoxicity", "setting": "Jurkat cell line", "result": "barely observed"},
      {"measurement": "amount of HBeAg DNA detected compared to the negative control group (Mock)", "setting": "HBV virus [2]", "result": "relatively less amount"}
    ]}
  ]
}
